8 substances from patent US7018615B2, “Method of identifying molecules that home to a selected organ in vivo” (The Burnham Institute, priority 1995, dated 2006) can be followed below.

Bridge positions count the residues as written; N and C are the ends. Ends that are not written are not given here.

Experiment [1] has as its system brain. Briefly: Homing of individually amplified phage to brain compared with kidney (TU recovered). The note with it: phage displaying the peptide, same input titer, TU recovered from each organ. The experiment is classed as in vivo, mice. How it is done: To determine the specificity of brain homing of the individual motifs identified, phage displaying the predominant motifs were amplified individually, diluted to the same input titer and administered to mice. Following administration, brain and kidney were removed and the number of TU of phage in each organ was determined. […] Specifically, the ratio of selective homing (brain:kidney) was about 8 for CNSRLHLRC (SEQ ID NO: 1) and for CLSSRLDAC (SEQ ID NO: 3), 4 for CENWWGDVC (SEQ ID NO: 2) and 9 for […] (SEQ ID NO: 16).

A further experiment concerns kidney. Briefly: Homing of individual phage to kidney compared with brain. The experiment is classed as in vivo, mice. The note with it: phage expressing the peptide. The procedure: The same methodology used to isolate phage expressing brain homing peptides was used to isolate phage expressing peptides that home to kidney. In these experiments, brain was used as the control organ. A mixture of the CX5C (SEQ ID NO: 36) and the CX6C (SEQ ID NO: 37) libraries was administered as described above. Homing of phage to the kidney was obtained and an approximately 3× to 7× enrichment of phage homing to kidney was observed following a second round of in vivo panning.
The amino acid sequences were determined for the inserts in 48 cloned phage that homed to kidney. The peptides expressed by these phage were represented by two predominant sequences, CLPVASC (SEQ ID NO: 21; 46% of the clones sequenced) and CGAREMC (SEQ ID NO: 22; 17% of the clones; see Table 2). In addition, the peptide CKGRSSAC (SEQ ID NO: 23) appeared three times and three other peptides were present twice each.

Experiment [2] has as its system brain. Briefly: Peptide competition: synthetic cyclic peptide co-injected with brain homing phage. Conditions: 100 μg synthetic cyclic peptide co-injected with 1×10^8 TU phage. The experiment is classed as in vivo, mice. The procedure:
In order to confirm the specificity of a peptide for directing homing to a selected organ, peptide competition experiments were performed. The cyclic peptide, CLSSRLDAC (SEQ ID NO: 3), which is one of the brain homing peptides (see Table 1) was synthesized (Immunodynamics; La Jolla Calif.) and purified by HPLC. The effect on the homing of phage expressing CLSSRLDAC (SEQ ID NO: 3), CENWWGDVC (SEQ ID NO: 2) or […] (SEQ ID NO: 16) to the brain was examined in order to determine whether co-administration of the synthetic peptide affected homing of the phage.
Phage expressing CLSSRLDAC (SEQ ID NO: 3), CENWWGDVC (SEQ ID NO: 2) or […] (SEQ ID NO: 16) were titrated to the same concentration and 1×10^8 TU was injected into mice alone, or with 100 μg purified synthetic cyclic CLSSRLDAC (SEQ ID NO: 3) peptide. The synthetic CLSSRLDAC (SEQ ID NO: 3) peptide inhibited the homing of phage expressing CLSSRLDAC (SEQ ID NO: 3) by about 60%.

The test system of experiment [3] is brain. Briefly: Homing of 125I-peptide/RBC complex to brain and kidney, alone or with unlabeled peptide. Format: in vivo, mouse. Conditions: for effect of coadministered unlabeled peptide on brain homing of the CLSSRLDAC/RBC complex / effect of coadministered unlabeled peptide on localization of the CLSSRLDAC/RBC complex in the kidney: 10 mM unlabeled peptide coadministered. The procedure:
The synthetic cyclic CLSSRLDAC (SEQ ID NO: 3) peptide (1 mg) was labeled with iodine-125 using the Bolton and Hunter reagent (Amersham; Arlington Heights Ill.). Labeled peptide was purified by reverse phase HPLC on Sep-Pak™ cartridges (Waters, Millipore Corp.; Milford Pa.) and the ^125I-peptide (200 μg) was coupled to 1 ml glutaraldehyde-stabilized sheep RBC (Sigma Chemical Co.; St. Louis Mo.) according to the manufacturer's instructions.
After 2 min, each mouse was perfused through the heart with 50 ml DMEM and the brain and kidney were removed and assayed for radioactivity.
Approximately twice as much of the CLSSRLDAC/RBC complex (SEQ ID NO: 3) homed to brain than to kidney. […] Coadministration of unlabeled CVRLNSLAC (SEQ ID NO: 43) had no effect on selective homing of the complex to brain and no effect on the non-specific localization of the complex in the kidney.

Consider CENWWGDVC (displayed on phage), for which the “ratio of selective homing (brain:kidney)” value with brain [1] is recorded as ~4.

Take CGAREMC (displayed on phage): the “ratio of selective kidney:brain homing” value in the experiment with kidney is 3.

As for CKGRSSAC (displayed on phage), in the experiment on kidney, the “ratio of selective kidney:brain homing” value was 2.

Consider CLPVASC (displayed on phage), for which the “ratio of selective kidney:brain homing” value in the experiment with kidney is 7.

On to “CLSSRLDAC (disulfide 1-9 (inferred)) [also synthesized as cyclic peptide]”, for which, in the experiment with brain [2], the “effect on homing to brain of CENWWGDVC phage” value was “did not affect” and the “inhibition of homing to brain of phage expressing CLSSRLDAC” value is “about 60%”. Further, in the experiment with brain [3], the “effect of coadministered unlabeled peptide on brain homing of the CLSSRLDAC/RBC complex” value is “essentially completely inhibited” and the “effect of coadministered unlabeled peptide on localization of the CLSSRLDAC/RBC complex in the kidney” value is “had no effect”. In addition, the “ratio of selective homing (brain:kidney)” value in the experiment with brain [1] is “about 8”.

CNSRLHLRC (displayed on phage): the “ratio of selective homing (brain:kidney)” value with brain [1] was “about 8”.

CVRLNSLAC: in the experiment on brain [3], the “effect of coadministered unlabeled peptide on brain homing of the CLSSRLDAC/RBC complex” value is on record as “had no effect” and the “effect of coadministered unlabeled peptide on localization of the CLSSRLDAC/RBC complex in the kidney” value is recorded as “no effect”. Further, the brain homing activity result in the experiment with brain [3] (stated for the control peptide) is “no brain homing activity”.

For the substance “WRCVLREGPAGGCAWFNRHRL (displayed on phage)”, the “ratio of selective homing (brain:kidney)” value with brain [1] is on record as ~9.
